Results on five compounds are retold here after article PMC5382548 (Scientific Reports, 2015).

The structures appear in SMILES notation. Read-outs that look alike come from different tables or passages of the source. Where only a bound is given, the exact number is not on record here.

In one assay the test system is MCF7 (breast). Description: SRB short-term cytotoxicity assay, MCF7. It is filed as cell-based. Conditions: Homo sapiens, 96 h. The procedure: (§1) Short-term anti-proliferative assays were carried out by two different assays using a panel of human cancer and non-malignant human cell lines. […] The transformed human embryonic kidney cell line HEK293T (wt KRAS) was sensitive to all tested drugs, including TMPyP4, a cationic porphyrin established as a G4 ligand, as well as the anticancer drug 5-fluorouracil (5-FU).
(§2) Human cell lines, breast carcinoma (MCF7), lung carcinoma (A549), pancreatic cancer (MIA PaCa2, Panc-1), immortalised telomerase-negative human lung fibroblast (ALT) and normal human lung fibroblast (WI-38), were all purchased from American Type Cell Culture (ATCC). Cell lines were maintained in appropriate medium supplemented with 10% fetal bovine serum (Invitrogen, UK), 2 mM L-glutamine (Invitrogen, Netherlands), and other components as specified by the suppliers. All cell lines were maintained at 37°C, 5% CO2, and routinely passaged. Short-term growth inhibition was measured using the SRB assay as described previously[43] (additional details described in Supplementary Information). […]
(§3) Sulforhodamine B (SRB) short-term cytotoxicity assay
(§4) Cells were seeded at appropriate densities into the wells of 96 well plates in their corresponding medium and incubated overnight to allow the cells to attach. Subsequently cells were exposed to various concentrations of freshly made solutions of drugs and incubated for 96 h. The cells were subsequently fixed with ice-cold trichloacetic acid (TCA) (10%, w/v) for 30 min and stained with 0.4% SRB dissolved in 1% acetic acid for 15 min.
All incubations were carried out at room temperature except for TCA fixation, which was at 4 °C. […]
After electrophoretic transfer onto nitrocellulose membranes, immunoblots were blocked with 5% milk solution, and next incubated overnight at 4 °C with primary mouse monoclonal antibody reactive to KRAS/p53 (#sc-30/sc-126; Santa Cruz Biotechnology Inc., Santa Cruz, CA, USA). […] Steady-state protein levels were expressed as mean ±SEM from at least three independent experiments.

Assay [1] has as its system Panc1 (chemo-resistant pancreatic). The assay can be described thus: SRB short-term cytotoxicity assay, Panc1. The note with it: Homo sapiens, PANC-1, 96 h. Type of assay: cell-based. How it is done: as §1, §2, §3, §4
All incubations were carried out at room temperature except for TCA fixation, which was at 4 °C. The IC50 value, the concentration required to inhibit cell growth by 50%, was determined from the mean absorbance at 540 nm for each drug concentration expressed as a percentage of the control untreated well absorbance. (Performed at School of Pharmacy, University College of London). […]
(#sc-30/sc-126; Santa Cruz Biotechnology Inc., Santa Cruz, CA, USA). […]

A further assay has as its system SW620 (metastatic colon). The assay can be described thus: MTS short-term cytotoxicity assay, SW620. Type of assay: cell-based. Conditions: Homo sapiens, read-out: IC50 SW620. How it is done: as §1
(§5) HCT116 human colon carcinoma cells, SW620 human colorectal adenocarcinoma and HEK293 T human embryonic kidney cells were grown in Dulbecco's modified Eagle's medium (DMEM) supplemented with 10% fetal bovine serum, and 1% antibiotic/antimycotic (Invitrogen, Grand Island, NY, USA) and maintained at 37°C in a humidified atmosphere of 5% CO2. Cells were seeded in 96 well plates at 5.000 cells/well. Twenty-four hours after cell plating, media was removed and replaced with fresh media containing test compounds and 5-FU (Sigma), a common cytotoxic agent used in colon cancer treatmen, or vehicle control (DMSO). Following 72 h of compound exposure, cell viability was evaluated using the CellTiter 96 AQueous Non-Radioactive Cell Proliferation Assay (Promega, Madison, WI, USA), using 3-(4,5-dimethylthiazol-2-yl)-5-(3-carboxymethoxyphenyl)-2-(4-sulfophenyl)-2H-tetrazolium, inner salt (MTS) as previously described. Cell viability data were expressed as mean ± SEM or mean ± SD from at least three independent experiments. IC50 and IC65 values were determined using GaphPad Prism v.5.00 (GraphPad Software). (Performed at Cell Function and Therapeutic Targeting Group, iMed.ULisboa)

The subject of a further assay is HCT116 (colon). Description: MTS short-term cytotoxicity assay, HCT116. Type of assay: cell-based, human. The procedure: as §1, §5
[2] abbreviates: Homo sapiens, HCT-116, MTS assay, 72 h, read-out: IC50 HCT116.

For the compound `CCN(CC)CCCNc1ccc2c(c1)c1[nH]c3ccccc3c1c[n+]2C` [2d], the IC50 stood at 2400 nM in the assay with MCF7 (breast); 220 nM in assay [1]; 590 nM in the assay on SW620 (metastatic colon) (SW-620, MTS assay, 72 h); 460 nM in the assay with HCT116 (colon) (setting [2]).

As to `Cn1cc2c3ccccc3nc-2c2cc(Br)ccc21` [2a, 2-bromo-5-methyl-indolo[3,2-c]quinoline], the IC50 was 2880 nM in the assay on MCF7 (breast); 2750 nM in assay [1]; 200 nM with SW620 (metastatic colon) (SW-620, MTS assay, 72 h); 140 nM in the assay on HCT116 (colon) (setting [2]).

`CCN(CC)CCCNc1ccc2[nH]c3c(c[n+](C)c4ccc(NCCCN(CC)CC)cc34)c2c1.[Cl-]` [3d]: the IC50 came out at 4740 nM in the assay on SW620 (metastatic colon) (SW-620, MTS assay, 72 h) and 3460 nM in the assay with HCT116 (colon) (setting [2]).

With `C[n+]1ccc(-c2c3nc(c(-c4cc[n+](C)cc4)c4ccc([nH]4)c(-c4cc[n+](C)cc4)c4ccc([nH]4)c(-c4cc[n+](C)cc4)c4nc2C=C4)C=C3)cc1` [TMPyP4, reference compound], the IC50 in the assay on SW620 (metastatic colon) (SW-620, 72 h) was over 20000 nM; in the assay with HCT116 (colon) (Homo sapiens, HCT-116, 72 h, read-out: IC50 HCT116, MTS assay, 72 h), 12300 nM; in the assay on HCT116 (colon) (read-out: IC50 HCT116, MTS assay, 72 h), 12400 nM.

Regarding `CCN(CC)CCCNc1ccc2c(c1)[nH]c1c2c[n+](C)c2ccc(NCCCN(CC)CC)cc12.[Cl-]` [3e], the IC50 in the assay on MCF7 (breast) was 11400 nM; in assay [1], 4800 nM; with SW620 (metastatic colon) (SW-620, MTS assay, 72 h), 1790 nM; with HCT116 (colon) (setting [2]), 1800 nM.
